Experiment: Complexation (formation) kinetics with Y(III), competing reaction with Arsenazo III, absorbance at 652 nm
Format: physicochemical
Settings: pH 4, room temperature
Description: Formation kinetics of Y(III) complexes of 1, 2, and DOTA (Macrocyclics) was measured by monitoring the absorption at 652 nm. To 2 mL of 1.6 mM YCl3 (from atomic absorption standard solution, Aldrich) and 5 mM Arsenazo III (Sigma) in 0.15 M NH4OAc (pH 4.0, metal-free), 20 μL of 10 mM ligand solution were added into a cell. After mixing (<5 sec), absorption of the solution at 652 nm (absorption wavelength of Y(III)-Arsenazo III) (Kline et al., Bioconjugate Chem., 1991, 2,26–31) was immediately followed over time at room temperature using an HP 8452A Diode Array Spectrophotometer, which was pre-blanked with a 5 mM Arsernazo III solution. Without any ligand added, the absorption was 0.089 for 1.6 mM YCl3 in 5 mM Arsernazo III solution at 652 nm.
The complexation kinetics of novel chelates 1, 2, and DOTA with Y(III) was qualitatively investigated using a competing reaction with Arsenazo III according to a modification of a previously reported procedure (Kodama et al., Inorg. Chem., 1991, 30, 1270–1273). The absorbance (A652) for the Y(III)-Arsenazo III complex was measured in the absence and in the presence of the chelates (1, 2, and DOTA) over 1 h. The results are shown in FIG. 3, which is a line graph of absorbance at 652 nm vs. reaction time (s), in which curve “a” represents Y-2, curve “b” represents Y-DOTA, and curve “c” represents Y-1. […] Complexation of Y(III) by 2 is assumed to occur to some degree, but the formed complex might undergo decomplexation due to an absence of complex stability, ultimately leading to an unfavorable equilibrium situation.

[1] = Arsenazo III competition, A652 over 1 h

| SMILES | complex formation with Y(III) (rate) [1] | degree of complexation of Y(III) [1] | rate of complex formation with Y(III) compared to DOTA (time scan measurements) |
| --- | --- | --- | --- |
| Cl.Cl.Cl.Cl.O=C(O)CN1CCN(CCCN(CC(=O)O)CC(=O)O)CCN(CC(=O)O)CC1 [ligand 2, {[3-(4,7-bis-carboxymethyl)-[1,4,7]triazacyclononan-1-yl-propyl]-carbonyl-methylamino]-acetic acid tetrahydrochloride] | very slow | slight and remained unchanged over the period of measurement |  |
| Cl.Cl.Cl.Cl.O=C(O)CN1CCN(CCN(CC(=O)O)CC(=O)O)CCN(CC(=O)O)CC1 [ligand 1, {[2-(4,7-bis-carboxymethyl)-[1,4,7]triazacyclononan-1-yl-ethyl]-carbonylmethyl-amino]-acetic acid tetrahydrochloride] | quite rapid and is essentially complete very shortly after the starting point of measurement |  | much greater rate than DOTA |
| O=C(O)CN1CCN(CC(=O)O)CCN(CC(=O)O)CCN(CC(=O)O)CC1 [DOTA, 1,4,7,10-tetraazacyclododecane-N,N′,N″,N′″-tetraacetic acid, reference compound] | sluggish |  |  |

From patent US7163935B2, “Scorpionate-like pendant macrocyclic ligands, complexes and compositions thereof, and methods of using same” (The United States of America as represented by the …, priority 2002, dated 2007)
